Laboratory results published in US9795135B2, “Binary fungicidal composition” (BAYER CORPSCIENCE AKTIENGESELLSCHAFT, priority 2013, dated 2017).

Experiments:
Sphaerotheca fuliginea = assay: Sphaerotheca test (cucumbers) / preventive; format: in vivo; conditions: 80 ppm a.i.; cucumber sprayed 24 h before inoculation; evaluated 7 d after inoculation
Method: Sphaerotheca Test (Cucumbers)/Preventive
(§1) Biological control agents and diverse chemical active compounds were tested solo and in a mixture of both. The biological control agents SERENADE® DPZ (comprising the biological control agent B1.1.18, Bacillus subtilis, strain AQ30002, Accession No. NRRL B-50421), SERENADE ASO (comprising the biological control agent B1.1.1, Bacillus subtilis, strain QST713/AQ713, Accession No. NRRL B-21661) and SONATA® (comprising the biological control agent B1.1.6, Bacillus pumilus, strain QST2808, Accession No. NRRL B-30087) were diluted with water to the desired application rate of 100 ppm a.i. to 500 ppm a.i., referring to the amount of 1.34% Bacillus subtilis or 1.38% Bacillus pumilis product.
The chemical compounds were solved in acetone+dimethylacetamide in the ratio 1/1+2% PS 16 (Alkylarylpolyglykolether) and diluted with water or the prepared bacteria suspension. Chemical compounds were tested in the concentration of 80 ppm a.i.
In order to test the activity, young plants (kotyledones are fully developed) of cucumber c.v. “Delikatess” were sprayed with the undermentioned preparation of compounds at the stated time of application. 24 h after application, the plants were inoculated with an aqueous spore suspension of Sphaerotheca fuliginea. Infested plants were stored in greenhouse at 22° C. and 70% relative humidity.
The test was evaluated 7 d after inoculation. Assessment: % infested leaf. 0% efficacy corresponds to the level of disease in the untreated control while an efficacy of 100% means that no disease is observed.

Alternaria solani = assay: Alternaria test (tomatoes) / preventive; format: in vivo; conditions: 80 ppm a.i.; tomatoes sprayed 24 h before inoculation; evaluated 3 days after inoculation
Method: Alternaria Test (Tomatoes)/Preventive
as §1, with “B-50421), SERENADE®” for “B-50421), SERENADE”
The chemical compounds were solved in acetone+dimethylacetamide in a ratio of 1/1+2% PS 16 (Alkylarylpolyglykolether) and diluted with water or the prepared bacteria suspension. Chemical compounds were tested in the concentration of 80 ppm a.i.
In order to test the activity, young plants of tomatoes (21 d after sowing) were sprayed with the preparation of active compound at the stated rate of application. 24 h after application, the plants were inoculated with an aqueous spore suspension (7.500 spores/ml) of Alternaria solani. The wetted plants were then placed in an incubation cabinet at approximately 20° C. and a relative atmospheric humidity of 100% and darkness.
The test was evaluated 3 days after the inoculation. Assessment: % infested leaf. 0% efficacy corresponds to the level of disease in the untreated control while an efficacy of 100% means that no disease is observed.

Row | Structure (SMILES) | Efficacy in % Found* (Sphaerotheca fuliginea) | Efficacy in % Found* (Alternaria solani)
1 | CC1(C)N=C(c2cnc3ccccc3c2)c2cccc(F)c2C1(C)C [(I-1)] | 49% | 37%
2 | CC1(C)N=C(c2cnc3ccccc3c2)c2ccccc2C1(F)F [(I-2)] | 35% | 13%
3 | CC1(C)N=C(c2cnc3ccccc3c2)c2cccc(F)c2C1(F)F [(I-3)] | 32% | 37%
